From US20250134895A1, “METHODS AND COMPOSITIONS FOR TREATING ALPHA-SYNUCLEIN-MEDIATED NEURODEGENERATION” (UNIVERSITY HEALTH NETWORK, priority 2021, published 2025)

Tests used:
[1] = test system: control GFP C. elegans; experiment: Coiler score and locomotion of control GFP C. elegans; format: in vivo, Caenorhabditis elegans
Procedure: Animals were synchronized by isolating eggs using alkaline hypochlorite treatment and hatching overnight. Larvae were plated onto NGM agar plates with OP50 and grown for 4 days before recording locomotion. For individual C. elegans recordings, a single adult animal was randomly picked, washed for 1 to 2 minutes in M9 buffer, and then transferred to a fresh NGM plate without food for imaging. Video images were acquired (2 frames per second) for up to 6 minutes using a sCMOS camera (pco.edge, PCO) mounted on a stereomicroscope (Olympus MVX10 MacroView) controlled using the μManager software.^55 A total of 40 individual animals were imaged for each strain. For C. elegans population recordings, ten adult animals were randomly removed using an eyelash pick, washed for 1 minute in M9 buffer, and then transferred to a fresh NGM plate without food, with a ring of copper sulfate solution (150 mM) around the area of recording (a chemorepellent to keep the animals in the recording frame). Exploratory locomotion was recorded using a CCD camera (GX1920, Allied Vision) which was attached to a dissecting stereomicroscope (Leica M165C, 1.0× PlanApo lens). […] Using ImageJ, the displacement, perimeter, and area of each animal was calculated, from which a circularity value was computed using the following formula: circularity=4π(A/P^2), where A is the area of the animal's body and P is the perimeter of the animal's body (both expressed in arbitrary pixel units). […] Using MATLAB (Mathworks), various behavioural metrics including the coiler score were calculated, which is the percentage of frames with a circularity value >0.6. Speed was automatically computed from the ImageJ based WrmTrk plugin as the distance travelled by each animal (in pixels) over the amount of time that it was tracked (in seconds).56 Average speed was determined by calculating the weighted average of each tracked animal's speed within a single population of animals. […]
C. elegans were grown and maintained as previously described (Examples 1-6). […] After 72 hours of drug treatment, animals were randomly picked, washed, and recorded. […]

[2] = test system: transgenic A30P α-synuclein C. elegans; experiment: Coiler score and locomotion of C. elegans expressing A30P α-synuclein in dopaminergic neurons; format: in vivo, Caenorhabditis elegans
Procedure: Using high-resolution, multi-worm tracking with custom image processing, methods were developed for semi-automated and blinded scoring of circularity for a population of simultaneously recorded animals (n=10 per recording). A coiler score was determined for the population tested by first calculating the circularity value for each animal in each frame of video and then calculating the proportion of circularity values >0.6. […] The coiler phenotype is an abnormal motor behaviour previously reported for several unc C. elegans strains with mutations affecting neuronal function.
Animals were synchronized by isolating eggs using alkaline hypochlorite treatment and hatching overnight. Larvae were plated onto NGM agar plates with OP50 and grown for 4 days before recording locomotion. For individual C. elegans recordings, a single adult animal was randomly picked, washed for 1 to 2 minutes in M9 buffer, and then transferred to a fresh NGM plate without food for imaging. Video images were acquired (2 frames per second) for up to 6 minutes using a sCMOS camera (pco.edge, PCO) mounted on a stereomicroscope (Olympus MVX10 MacroView) controlled using the μManager software.^55 A total of 40 individual animals were imaged for each strain. For C. elegans population recordings, ten adult animals were randomly removed using an eyelash pick, washed for 1 minute in M9 buffer, and then transferred to a fresh NGM plate without food, with a ring of copper sulfate solution (150 mM) around the area of recording (a chemorepellent to keep the animals in the recording frame). Exploratory locomotion was recorded using a CCD camera (GX1920, Allied Vision) which was attached to a dissecting stereomicroscope (Leica M165C, 1.0× PlanApo lens). A Labview program captured video (2 frames per second) at 1936×1456 resolution. Using ImageJ, the displacement, perimeter, and area of each animal was calculated, from which a circularity value was computed using the following formula: circularity=4π(A/P^2), where A is the area of the animal's body and P is the perimeter of the animal's body (both expressed in arbitrary pixel units). […] Using MATLAB (Mathworks), various behavioural metrics including the coiler score were calculated, which is the percentage of frames with a circularity value >0.6. Speed was automatically computed from the ImageJ based WrmTrk plugin as the distance travelled by each animal (in pixels) over the amount of time that it was tracked (in seconds).56 Average speed was determined by calculating the weighted average of each tracked animal's speed within a single population of animals. On the day of the recording for dopamine or raclopride treatment, adult animals were washed for 1 minute in M9 buffer, treated in a solution containing either drug for 1 minute, and then placed onto fresh NGM plates without food, with a copper sulfate solution ring around the area of recording. […] Drug plates were prepared by adding each drug to LB medium with OP50 before spreading onto fresh NGM plates. The solvent used to dissolve each drug was used as vehicle control for the drug treatment experiments (M9 buffer for dopamine, distilled water for raclopride, DMSO for all other drugs).
After 72 hours of drug treatment, animals were randomly picked, washed, and recorded. A total of ten worms were recorded per population, and twelve populations were recorded for each of the four treatment groups. Locomotion was recorded for each population over a total of 1800 frames over three minutes. The animal's movement speed, area, and perimeter were automatically analyzed as previously described. Coiler score was calculated automatically using a ratio of the animal's area to perimeter, where a higher coiler score would represent a greater degree of α-synuclein-induced dopaminergic neuron dysfunction in vivo.

Compound: Nc1nc(NC2CC2)c2ncn([C@H]3C=C[C@@H](CO)C3)c2n1 [Abacavir, abacavir]
- speed of GFP worms ([1]; 100 μM): no differences
- coiling / coiler score of control GFP animals ([1]; 100 μM of drug): no differences
- locomotor speed ([2]; 100 μM of drug): No significant differences
- effect on coiling / coiler score ([2]; 100 μM, 72 hr, vs DMSO vehicle): significantly reduced
